Test: maxima of UV-A and UV-B absorption of quinoxaline derivatives in 2-propanol
Type: physicochemical
Settings: 1 mg of substance per 100 ml of solvent; for UV-A (400 320 nm) Max. abs.: absorbance at UV-A maximum; for UV-A (400 320 nm) λ[nm]: wavelength of UV-A maximum; for UV-B (280 320 nm) Max. abs.: absorbance at UV-B maximum; for UV-B (280 320 nm) λ[nm]: wavelength of UV-B maximum
Experimental: The measurement was carried out in 2-propanol at a concentration of 1 mg of substance per 100 ml of solvent.

Structure (SMILES) | UV-A (400 320 nm) Max. abs. | UV-A (400 320 nm) λ[nm] | UV-B (280 320 nm) Max. abs. | UV-B (280 320 nm) λ[nm]
Cc1nc2nc3ccccc3nc2[nH]1 | 0.5824 | 327.5 | – | –
CC(C)(C)c1nc2nc3ccccc3nc2[nH]1 | 0.6290 | 330.0 | – | –
c1ccc2nc3[nH]ccc3nc2c1 | 0.5381 | 338.0 | – | –
CC(=O)c1ccc(-n2c(-c3ccccc3)cc3nc4ccccc4nc32)cc1 | 0.4067 | 359.0 | – | –
O=C(O)c1ccc(-n2c(-c3ccccc3)cc3nc4ccccc4nc32)cc1 | 0.3685 | 358.0 | – | –
FC(F)(F)c1cc(-c2nc3nc4ccccc4nc3[nH]2)cc(C(F)(F)F)c1 | 0.7037 | 358.0 | – | –
FC(F)(F)c1nc2nc3ccccc3nc2[nH]1 | 0.4875 | 327.5 | – | –
c1ccc2nc3[nH]cnc3nc2c1 | 0.5227 | 328.0 | – | –
CC(=O)c1ccc(-n2c([SiH2]C(C)C)cc3nc4ccccc4nc32)cc1 | 0.5774 | 403.0 | 0.4246 | 318.0
c1ccc(-c2cc3nc4ccccc4nc3[nH]2)cc1 | 0.7158 | 367.0 | 0.8710 | 268.0

Reference: patent publication US7101537B2, “Tricyclic quinoxaline and quinoline derivatives as a UV filter” (Merck Patentgesellschaft, priority 2001, dated 2006)
